Positions of bridges follow the written chain, without caps; N, C: chain ends. Non-standard residues stand in square brackets, D forms with d. Residues, ends and D or L forms follow the SMILES beside them. *: point of attachment. hPhe(3-Cl-4-CF3) = N[C@@H](CCc1ccc(C(F)(F)F)c(Cl)c1)C(=O)O; NMeCha = CN[C@@H](CC1CCCCC1)C(=O)O; NEtLeu = CCN[C@@H](CC(C)C)C(=O)O; NMeChg = CN[C@H](C(=O)O)C1CCCCC1; NMeT = CN[C@H](C(=O)O)[C@@H](C)O; NMeD = CN[C@@H](CC(=O)O)C(=O)O; NMeL = CN[C@@H](CC(C)C)C(=O)O; NMehSer = CN[C@@H](CCO)C(=O)O; NMeAc5c = CNC1(C(=O)O)CCCC1; NMeNva = CCC[C@H](NC)C(=O)O; NMeA = CN[C@@H](C)C(=O)O; Piperidide = C1CCN(*)CC1; Ac5c = NC1(C(=O)O)CCCC1; Sar = CNCC(=O)O Where only a bound is given, the exact number is not on record here.

For series [1], the system named is GTPase KRas (Homo sapiens), P01116 [G12D]. As to the kind of experiment: Binding affinity to biotinylated KRAS G12D mutant (unknown origin) assessed as Koff incubated for 120 mins by SPR analysis.
The test system of a further series is ASPC1. As to the kind of experiment: Cytotoxicity against human AsPC1 cells assessed as reduction in cell viability incubated for 7 days by CellTiterGlo Luminescent Cell Viability Assay. In kind it is functional, cell-based. The conditions noted are these: ASPC1, 168 h. In general terms: In ATP-based viability assays light output follows the ATP content of the culture.

The subject of series [2] is GTPase KRas (Homo sapiens), P01116 [G12D]. Kind of series: Binding affinity to biotinylated KRAS G12D mutant (unknown origin) assessed as Kon incubated for 120 mins by SPR analysis. (In general: In SPR one partner is held on a chip, and binding of the other changes the refractive index at the surface.)
Series [3] can be described thus: Apparent permeability in human Caco-2 cells incubated for 180 mins by LC-MS/MS method. It is filed as ADME, cell-based.
In a further series the target is GTPase KRas (Homo sapiens, UniProt P01116, G12D). Kind of series: Binding affinity to biotinylated KRAS G12D mutant (unknown origin) incubated for 120 mins by SPR analysis.
Series [4] is described as follows: Inhibition of biotin-tagged KRAS G12D mutant (unknown origin) to recombinant His-tagged SOS1 (unknown origin) protein-protein interaction incubated for 120 mins by AlphaLISA method. The arrangement: species or system Homo sapiens. On the technique in general: Alpha assays give light when donor and acceptor beads are brought close together.

GTPase KRas (Homo sapiens), P01116 [G12D], sequence (P01116 whole entry G12D, looked up): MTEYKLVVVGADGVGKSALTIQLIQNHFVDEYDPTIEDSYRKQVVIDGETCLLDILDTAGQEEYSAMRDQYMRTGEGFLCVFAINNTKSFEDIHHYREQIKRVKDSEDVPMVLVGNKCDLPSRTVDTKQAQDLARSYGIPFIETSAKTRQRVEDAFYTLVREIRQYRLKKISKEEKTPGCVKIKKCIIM
GTPase KRas, sequence (P01116 whole entry G12D): as the sequence (P01116 whole entry G12D, looked up) above

For orientation: IC50 means the point on the concentration scale where inhibition reaches its midpoint. The Papp is the rate of passage across a membrane or cell layer, normalised by area and donor concentration. One may read the Kd as the free concentration of one partner at which half of the binding sites on the other are occupied at equilibrium, for simple one-to-one binding. A lower Kd goes with tighter binding. On to `CC[C@H](C)[C@@H]1NC(=O)[C@H](CC(C)C)N(CC)C(=O)C[C@@H](C(=O)N2CCCCC2)N(C)C(=O)[C@H](C2CCCCC2)N(C)C(=O)C2(CCCC2)NC(=O)[C@@H]2CCCN2C(=O)[C@H](CCc2ccc(C(F)(F)F)c(Cl)c2)NC(=O)CN(C)C(=O)[C@H](CC2CCCCC2)N(C)C(=O)CN(C)C(=O)CN(C)C1=O` ([NEtLeu]I[Sar][Sar][NMeCha][Sar][hPhe(3-Cl-4-CF3)]P[Ac5c][NMeChg][NMeD]-Piperidide; lactam N-11), for which the figures for the K in series [1] and in series [2] were 2.3 10^-4/s and 2.1 10^5/Ms, respectively. Moreover, the concentration for half-maximal inhibition (IC50) in the series on ASPC1 was 73 nM; in series [4], under 2 nM. In addition, the Papp at 3 h in series [3] was determined as 2.9 nm/s. The molecule further registered a dissociation constant Kd on GTPase KRas of 1.1 nM.
Take `CC[C@H](C)[C@@H]1NC(=O)[C@H](C)N(C)C(=O)C[C@@H](C(=O)N2CCCCC2)N(C)C(=O)[C@H](C2CCCCC2)N(C)C(=O)C2(CCCC2)NC(=O)[C@@H]2CCCN2C(=O)[C@H](CCc2ccc(C(F)(F)F)c(Cl)c2)NC(=O)CN(C)C(=O)[C@H](CC2CCCCC2)N(C)C(=O)CN(C)C(=O)CN(C)C1=O` ([NMeA]I[Sar][Sar][NMeCha][Sar][hPhe(3-Cl-4-CF3)]P[Ac5c][NMeChg][NMeD]-Piperidide; lactam N-11): the K in series [1] is 1.7 10^-4/s; in series [2], 1.2 10^6/Ms. The 50% inhibitory concentration (IC50) is 91 nM with ASPC1 and under 2 nM in series [4]. The apparent permeability coefficient (Papp) at 3 h in series [3] turned out to be 5.6 nm/s. On GTPase KRas, this molecule showed a Kd of 0.14 nM.
As to `CC[C@H](C)[C@@H]1NC(=O)C2(CCCC2)N(C)C(=O)C[C@@H](C(=O)N2CCCCC2)N(C)C(=O)[C@H](C2CCCCC2)N(C)C(=O)C2(CCCC2)NC(=O)[C@@H]2CCCN2C(=O)[C@H](CCc2ccc(C(F)(F)F)c(Cl)c2)NC(=O)CN(C)C(=O)[C@H](CC2CCCCC2)N(C)C(=O)CN(C)C(=O)CN(C)C1=O` ([NMeAc5c]I[Sar][Sar][NMeCha][Sar][hPhe(3-Cl-4-CF3)]P[Ac5c][NMeChg][NMeD]-Piperidide; lactam N-11), the K in series [1] was 2.4 10^-4/s; in series [2] it was 3.8 10^5/Ms. Besides, the results for the 50% inhibitory concentration (IC50) (in the series with ASPC1; in series [4]) were 65 nM and under 2 nM, respectively. Moreover, the Papp at 3 h in series [3] was 6.2 nm/s. This molecule had a Kd at GTPase KRas of 0.64 nM.
`CC[C@H](C)[C@@H]1NC(=O)[C@H](CC2CCCCC2)N(C)C(=O)C[C@@H](C(=O)N2CCCCC2)N(C)C(=O)[C@H](C2CCCCC2)N(C)C(=O)C2(CCCC2)NC(=O)[C@@H]2CCCN2C(=O)[C@H](CCc2ccc(C(F)(F)F)c(Cl)c2)NC(=O)CN(C)C(=O)[C@H](CC2CCCCC2)N(C)C(=O)CN(C)C(=O)CN(C)C1=O` ([NMeCha]I[Sar][Sar][NMeCha][Sar][hPhe(3-Cl-4-CF3)]P[Ac5c][NMeChg][NMeD]-Piperidide; lactam N-11): the values for the K in series [1] and in series [2] were 2.6 10^-4/s and 1 10^5/Ms, respectively. The values for the IC50 (in the series on ASPC1; in series [4]) were 210 nM and under 2 nM, respectively. Moreover, the apparent permeability (Papp) at 3 h in series [3] turned out to be 2 nm/s. In addition, binding at GTPase KRas was put at a Kd of 2.5 nM.
For the molecule `CC[C@H](C)[C@@H]1NC(=O)[C@H](CC(C)C)N(C)C(=O)C[C@@H](C(=O)N2CCCCC2)N(C)C(=O)[C@H](C2CCCCC2)N(C)C(=O)C2(CCCC2)NC(=O)[C@@H]2CCCN2C(=O)[C@H](CCc2ccc(C(F)(F)F)c(Cl)c2)NC(=O)CN(C)C(=O)[C@H](CC2CCCCC2)N(C)C(=O)CN(C)C(=O)CN(C)C1=O` ([NMeL]I[Sar][Sar][NMeCha][Sar][hPhe(3-Cl-4-CF3)]P[Ac5c][NMeChg][NMeD]-Piperidide; lactam N-11), the figures for the K in series [1] and in series [2] were 2.5 10^-4/s and 7.8 10^5/Ms, respectively. Moreover, the IC50 is 40 nM in the series on ASPC1 and under 2 nM in series [4]. Further, the apparent permeability (Papp) at 3 h in series [3] is 7.1 nm/s. For the same molecule, binding at GTPase KRas was put at a Kd of 0.32 nM.
Consider `CCC[C@H]1C(=O)N[C@@H]([C@@H](C)CC)C(=O)N(C)CC(=O)N(C)CC(=O)N(C)[C@@H](CC2CCCCC2)C(=O)N(C)CC(=O)N[C@@H](CCc2ccc(C(F)(F)F)c(Cl)c2)C(=O)N2CCC[C@H]2C(=O)NC2(CCCC2)C(=O)N(C)[C@@H](C2CCCCC2)C(=O)N(C)[C@H](C(=O)N2CCCCC2)CC(=O)N1C` ([NMeNva]I[Sar][Sar][NMeCha][Sar][hPhe(3-Cl-4-CF3)]P[Ac5c][NMeChg][NMeD]-Piperidide; lactam N-11), for which the K in series [1] was 2.3 10^-4/s; in series [2] it was 3.1 10^5/Ms. In addition, the half-maximal inhibitory concentration (IC50) was 49 nM in the series on ASPC1 and under 2 nM in series [4]. The apparent permeability coefficient (Papp) at 3 h in series [3] came to 8.5 nm/s. For the same molecule, at GTPase KRas, the dissociation constant (Kd) came to 0.75 nM.
With `CC[C@H](C)[C@@H]1NC(=O)[C@H]([C@@H](C)O)N(C)C(=O)C[C@@H](C(=O)N2CCCCC2)N(C)C(=O)[C@H](C2CCCCC2)N(C)C(=O)C2(CCCC2)NC(=O)[C@@H]2CCCN2C(=O)[C@H](CCc2ccc(C(F)(F)F)c(Cl)c2)NC(=O)CN(C)C(=O)[C@H](CC2CCCCC2)N(C)C(=O)CN(C)C(=O)CN(C)C1=O` ([NMeT]I[Sar][Sar][NMeCha][Sar][hPhe(3-Cl-4-CF3)]P[Ac5c][NMeChg][NMeD]-Piperidide; lactam N-11), the K in series [1] was 2.7 10^-4/s; in series [2], 1.2 10^6/Ms. Besides, the half-maximal inhibitory concentration (IC50) was 220 nM in the series with ASPC1 and under 2 nM in series [4]. In addition, in series [3], the Papp at 3 h was 1.5 nm/s. The same molecule returned a Kd at GTPase KRas of 0.23 nM.
For `CC[C@H](C)[C@@H]1NC(=O)[C@H](CCOC)N(C)C(=O)C[C@@H](C(=O)N2CCCCC2)N(C)C(=O)[C@H](C2CCCCC2)N(C)C(=O)C2(CCCC2)NC(=O)[C@@H]2CCCN2C(=O)[C@H](CCc2ccc(C(F)(F)F)c(Cl)c2)NC(=O)CN(C)C(=O)[C@H](CC2CCCCC2)N(C)C(=O)CN(C)C(=O)CN(C)C1=O` ([NMehSer](Me)I[Sar][Sar][NMeCha][Sar][hPhe(3-Cl-4-CF3)]P[Ac5c][NMeChg][NMeD]-Piperidide; lactam N-11), the K in series [1] was 2.8 10^-4/s; in series [2] it was 1.1 10^6/Ms. The 50% inhibitory concentration (IC50) is 74 nM in the series on ASPC1 and under 2 nM in series [4]. In addition, the apparent permeability (Papp) at 3 h in series [3] was 3.7 nm/s. In addition, binding at GTPase KRas was characterised by a dissociation constant (Kd) of 0.26 nM.
On to `CC[C@H](C)[C@@H]1NC(=O)[C@H](CCO)N(C)C(=O)C[C@@H](C(=O)N2CCCCC2)N(C)C(=O)[C@H](C2CCCCC2)N(C)C(=O)C2(CCCC2)NC(=O)[C@@H]2CCCN2C(=O)[C@H](CCc2ccc(C(F)(F)F)c(Cl)c2)NC(=O)CN(C)C(=O)[C@H](CC2CCCCC2)N(C)C(=O)CN(C)C(=O)CN(C)C1=O` ([NMehSer]I[Sar][Sar][NMeCha][Sar][hPhe(3-Cl-4-CF3)]P[Ac5c][NMeChg][NMeD]-Piperidide; lactam N-11), for which the K in series [1] was 2.2 10^-4/s; in series [2], 1.2 10^6/Ms. Also, the 50% inhibitory concentration (IC50) in the series on ASPC1 was 63 nM; in series [4], under 2 nM. The apparent permeability (Papp) at 3 h in series [3] is 3.9 nm/s. For the same molecule, the affinity at GTPase KRas, expressed as Kd, was 0.17 nM.

The values above are taken from ChEMBL document CHEMBL5550184, “Structure-activity relationships of middle-size cyclic peptides, KRAS inhibitors derived from an mRNA display” (Bioorg Med Chem, 2024).
